Among the data in patent publication US10538497B2, “Compounds as indoleamine 2,3-dioxygenase inhibitors” (Merck Sharp & Dohme Corp., priority 2015, dated 2020) are IC50 values, retold here.

The structures appear in SMILES notation.

The target of test [1] is T1, IDO1 (Homo sapiens (Human), UniProt P14902). In words: IDO1 Cellular Assay in Frozen HEK293 Cells Transiently Transfected with Human IDO1. The conditions noted are these: read-out: IDO1 HEK293 Cell Assay, IC50. The format is cell-based. The method, then:
IDO1 Cellular Assay in Frozen HEK293 Cells Transiently Transfected with Human IDO1
HEK293 cells were cultured in complete HEK293 culture medium (90% DMEM, 10% heat-inactivated fetal bovine serum). When reaching sub-confluent, the cells were trypsinized and neutralized with complete medium. […] Flag-IDO1 plasmid was added to the cell suspension at a concentration of 100 μg/mL. The cell-plasmid solutions were transferred to the OC-400 processing assembly (Maxcyte), 400 l/unit and the units were placed in a Maxcyte instrument to carry out flow electroporation for transfection. The cells were then transferred to a sterile 24-well cell culture plate to recover for 20-30 min at 37° C. in an incubator with 5% CO2.
Frozen HEK293/IDO1 and HEK293 WT cells were thawed and transferred into HEK293 assay medium (99% complete HEK293 culture medium, 1% Pen/Strep) with 20 mL medium/vial of cells. The cells were spun down at 250 g in a table top centrifuge for 5 min and suspended in same volume of HEK293 assay medium. […] Sterile L-tryptophan were added to the cells with final concentration of 300 μM.
HEK293/IDO1 and HEK293 WT cells were dispensed to the respective wells of 384-well assay plates containing the compounds. The plates were incubated for about 28-30 h at a 37° C., 5% CO2 incubator. […] The plates were centrifuged for 1 min at 200×g. The resulting fluorescence was measured in a Spectramax plate reader (Molecular Devices) with a 400 nm excitation filter and a 510 nm emission filter.

The target of test [2] is T1, IDO1. In words: IDO1 Enzyme Assay. The conditions noted are these: read-out: IDO1 Enzyme Assay, IC50; HIS-tagged recombinant IDO1, 40 nM.
Setting [3] is: HEK293 cells transiently transfected with human IDO1.

T1 sequence (P14902 whole entry): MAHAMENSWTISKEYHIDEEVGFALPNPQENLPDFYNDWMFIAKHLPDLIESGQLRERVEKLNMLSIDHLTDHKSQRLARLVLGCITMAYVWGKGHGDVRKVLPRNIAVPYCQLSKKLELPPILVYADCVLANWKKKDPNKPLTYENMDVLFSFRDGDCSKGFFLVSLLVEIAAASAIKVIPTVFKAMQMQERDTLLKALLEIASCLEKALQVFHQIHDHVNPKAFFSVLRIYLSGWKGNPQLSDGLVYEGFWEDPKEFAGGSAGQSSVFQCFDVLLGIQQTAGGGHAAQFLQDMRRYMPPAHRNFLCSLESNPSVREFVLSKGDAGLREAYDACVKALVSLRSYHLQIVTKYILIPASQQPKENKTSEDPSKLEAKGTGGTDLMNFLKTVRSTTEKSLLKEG

One may read the IC50 as the midpoint of a concentration-inhibition curve. Turning to `CC(C)(C)OC(=O)NCCSc1nonc1/C(=N/O)Nc1ccc(F)c(Br)c1` [Example 1, Tert-butyl (Z)-(2-((4-(N-(3-bromo-4-fluorophenyl)-N′-hydroxycarbamimidoyl)-1,2,5-oxadiazol-3-yl)thio)ethyl)carbamate], the IC50 on IDO1 [1] (setting [3]) is 740 nM.

For the compound `O/N=C(\Nc1ccc(F)c(Br)c1)c1nonc1O` [Example 4, (Z)—N-(3-Bromo-4-fluorophenyl)-N′,4-dihydroxy-1,2,5-oxadiazole-3-carboximidamide], the IC50 is 3700 nM at IDO1 [1] (setting [3]) and over 10000 nM on IDO1 [2].

On to `O=C(O)CCSc1nonc1/C(=N/O)Nc1ccc(F)c(Br)c1` [Example 14, (Z)-3-((4-(N-(3-bromo-4-fluorophenyl)-N′-hydroxycarbamimidoyl)-1,2,5-oxadiazol-3-yl)thio)propanoic acid], for which the IC50 was over 10000 nM at IDO1 [1] (setting [3]) and 48.2 nM on IDO1 [2].

For `CC(Sc1nonc1/C(=N/O)Nc1ccc(F)c(Br)c1)C(=O)O` (stereo not drawn) [Example 16, (Z)-2-((4-(N-(3-bromo-4-fluorophenyl)-N′-hydroxycarbamimidoyl)-1,2,5-oxadiazol-3-yl)thio)propanoic acid], the IC50 on IDO1 [1] (setting [3]) was over 10000 nM; on IDO1 [2], 149 nM.

For the compound `COC(=O)CSc1nonc1/C(=N/O)Nc1ccc(F)c(Br)c1` [Example 22, Methyl (Z)-2-((4-(N-(3-bromo-4-fluorophenyl)-N′-hydroxycarbamimidoyl)-1,2,5-oxadiazol-3-yl)thio)acetate], the IC50 on IDO1 [1] (setting [3]) was 1220 nM; on IDO1 [2], 35.7 nM.

Consider `CC(=O)NCCSc1nonc1/C(=N/O)Nc1ccc(F)cc1` [Example 62, N-[2-({4-[N-(4-fluorophenyl)-N′-hydroxycarbamimidoyl]-1,2,5-oxadiazol-3-yl}sulfanyl)ethyl]acetamide], for which the half-inhibitory concentration (IC50) on IDO1 [1] (setting [3]) was 1790 nM; at IDO1 [2], 1030 nM.

Consider `O=c1c(NCCSc2nonc2/C(=N/O)Nc2ccc(F)c(Br)c2)c(NCC(O)CO)c1=O` (stereo not drawn) [Example 75, N-(3-bromo-4-fluorophenyl)-4-{[2-({2-[(2,3-dihydroxypropyl)amino]-3,4-dioxocyclobut-1-en-1-yl}amino)ethyl]sulfanyl}-N′-hydroxy-1,2,5-oxadiazole-3-carboximidamide], for which the figures for the IC50 on IDO1 [1] (setting [3]) and on IDO1 [2] were 1140 nM and 23 nM, respectively.

For the compound `O=c1c(NCCSc2nonc2/C(=N/O)Nc2ccc(F)c(Br)c2)c(NCc2ccncc2)c1=O` [Example 95, N-(3-bromo-4-fluorophenyl)-4-{[2-({3,4-dioxo-2-[(pyridin-4-ylmethyl)amino]cyclobut-1-en-1-yl}amino)ethyl]sulfanyl}-N′-hydroxy-1,2,5-oxadiazole-3-carboximidamide], the IC50 at IDO1 [1] (setting [3]) was 723 nM; on IDO1 [2] it was 27.8 nM.

On to `O=P(CCSc1nonc1/C(=N/O)Nc1ccc(F)c(Br)c1)(Oc1ccccc1)Oc1ccccc1` [Example 101, diphenyl [2-({4-[N-(3-bromo-4-fluorophenyl)-N′-hydroxycarbamimidoyl]-1,2,5-oxadiazol-3-yl}sulfanyl)ethyl]phosphonate], for which the IC50 at IDO1 [1] was found to be 2240 nM; on IDO1 [2], 764 nM.

With `CCOC(=O)CNP(=O)(CCCSc1nonc1/C(=N/O)Nc1ccc(F)c(Br)c1)NCC(=O)OCC` [Example 108, ethyl 4-[3-({4-[N-(3-bromo-4-fluorophenyl)-N′-hydroxycarbamimidoyl]-1,2,5-oxadiazol-3-yl}sulfanyl)propyl]-7-oxo-8-oxa-3,5-diaza-4-phosphadecan-1-oate 4-oxide], the IC50 amounted to 838 nM at IDO1 [1] (setting [3]) and 131 nM at IDO1 [2].

As for `CC(C)OC(=O)OCOP(=O)(CCCSc1nonc1/C(=N/O)Nc1ccc(F)c(Br)c1)OCOC(=O)OC(C)C` [Example 109, bis({[(1-methylethoxy)carbonyl]oxy}methyl) [3-({4-[N-(3-bromo-4-fluorophenyl)-N′-hydroxycarbamimidoyl]-1,2,5-oxadiazol-3-yl}sulfanyl)propyl]phosphonate], the IC50 on IDO1 [1] (setting [3]) was 2430 nM; on IDO1 [2], 706 nM.

For `O=P(CCSc1nonc1/C(=N/O)Nc1ccc(F)c(Br)c1)(NCc1ccccc1)NCc1ccccc1` [Example 116, 4-({2-[bis(benzylamino)phosphoryl]ethyl}sulfanyl)-N-(3-bromo-4-fluorophenyl)-N′-hydroxy-1,2,5-oxadiazole-3-carboximidamide], the IC50 at IDO1 [1] (setting [3]) is 706 nM; at IDO1 [2] it was 154 nM.

Regarding `O=P(O)(CCCSc1nonc1/C(=N/O)Nc1ccc(F)c(Br)c1)Oc1ccccc1` [Example 118, phenyl hydrogen [3-({4-[N-(3-bromo-4-fluorophenyl)-N′-hydroxycarbamimidoyl]-1,2,5-oxadiazol-3-yl}sulfanyl)propyl]phosphonate], the IC50 on IDO1 [1] was found to be 8150 nM; at IDO1 [2], 34.1 nM.

Consider `CN(C)P(=O)(CCSc1nonc1/C(=N/O)Nc1ccc(F)c(Br)c1)N(C)C` [Example 139, 4-({2-[bis(dimethylamino)phosphoryl]ethyl}sulfanyl)-N-(3-bromo-4-fluorophenyl)-N′-hydroxy-1,2,5-oxadiazole-3-carboximidamide], for which the IC50 at IDO1 [1] turned out to be 551 nM; at IDO1 [2], 117 nM.

Turning to `CC(=O)N[C@H](C)CSc1nonc1/C(=N/O)Nc1ccc(F)c(C#N)c1` [Example 179, N-[(1R)-2-({4-[N-(3-cyano-4-fluorophenyl)-N′-hydroxycarbamimidoyl]-1,2,5-oxadiazol-3-yl}sulfanyl)-1-methylethyl]acetamide], the results for the IC50 at IDO1 [1] (setting [3]) and at IDO1 [2] were 686 nM and 218 nM, respectively.

`O=c1c(NCCSc2nsnc2/C(=N/O)Nc2ccc(F)c(Br)c2)c(NCC2CC2)c1=O` [Example 210, N-(3-bromo-4-fluorophenyl)-4-{[2-({2-[(cyclopropylmethyl)amino]-3,4-dioxocyclobut-1-en-1-yl}amino)ethyl]sulfanyl}-N′-hydroxy-1,2,5-thiadiazole-3-carboximidamide]: the IC50 at IDO1 [1] (setting [3]) worked out at 1410 nM; at IDO1 [2] it was 166 nM.

On to `O=c1c(NCCSc2nsnc2/C(=N/O)Nc2ccc(F)c(Br)c2)c(NC2CC2)c1=O` [Example 211, N-(3-bromo-4-fluorophenyl)-4-[(2-{[2-(cyclopropylamino)-3,4-dioxocyclobut-1-en-1-yl]amino}ethyl)sulfanyl]-N′-hydroxy-1,2,5-thiadiazole-3-carboximidamide], for which the IC50 at IDO1 [1] (setting [3]) turned out to be 1320 nM; at IDO1 [2], 297 nM.
